Values of other authors in patent US20220031887A1, “Active Materials, Surfaces, Surface Treatments And Methods Using Inclusion Complex Formers For Pathogen Reduction” (priority 2020, published 2022).

## O=C1OC2(c3ccccc31)c1cc(Br)c(O)c(Br)c1Oc1c2cc(Br)c(O)c1Br [Eosin Y]
In ideal solvent
  Epsilon: 112,000
Peak absorption in visible light
  Lambda Max: 525
